# Counter-ions that a name gives are not always drawn.
# What was measured:
# [1] = tested on: H460 human lung cancer cells; test: MTT assay, toxicity of drug-loaded vesicles on H460 cells; type: cell-based; conditions: NCI-H460, 4 h co-cultivation, then 44 h in fresh medium
# Protocol: MTT assay was used to test the toxicity of the polymeric vesicles on H460 human lung cancer cells. […] After co-cultivation for 4 hours, the samples were aspirated and replaced with fresh medium to continue incubation for 44 hours. The subsequent addition of MTT, treatment, and measurement of absorbance were the same as those in Example 26.
# [2] = tested on: H460 subcutaneous lung cancer; test: Anti-tumor effect in mice bearing H460 subcutaneous lung cancer; type: in vivo
# Source text: The establishment of a subcutaneous H460 tumor-bearing mice model was the same as that in Example 33.
# [3] = tested on: orthotopic A549 lung cancer (A549-Luc); conditions: for bioluminescence intensity of the lung tumor / tumor growth: i.v. on Days 0, 4, 8 and 12, within 16 days; for survival of the mice (all survived / all dead): orthotopic A549
# Protocol: Balb/C nude mice weighing approximately 18 to 20 grams (aged 4 to 6 weeks) were selected for the experiment. 5×10^6 bioluminescent A549 human lung cancer cells (A549-Luc) were directly injected in the lungs. After about 10 days, the mice were observed by an in vivo imaging system for small animals. […] From Day 0 to Day 16, the body weights of the mice were measured every four days. The bioluminescence intensity of the lung tumor in mice was monitored using an in vivo imaging system for small animals. The survival of the mice was observed up to 45 days.
# The PTG-loaded cRGD/CLPs, the non-targeted self-crosslinked polymeric vesicle CLPs, Taxol, and PBS were injected into mice, respectively.
# A549 lung cancer cells = test: MTT assay, toxicity of drug-loaded vesicles on A549 cells; type: cell-based; conditions: Homo sapiens, A549, read-out: half inhibition concentration (IC50) for A549 cells
# Protocol: The toxicity of the polymeric vesicles on A549 cells was tested by MTT assay. […] The concentrations of DOX.HCl were 0.01, 0.1, 0.5, 1, 5, 10, 20 and 40 μg/mL, respectively. The content of the targeting molecules ranged from 10%, 20% to 30%; the non-targeted drug-loaded self-crosslinked polymeric vesicle group and the free DOX.HCl group were used as control groups. After co-cultivation for 4 hours, the samples were aspirated and replaced with fresh medium to continue incubation for 44 hours.
# [4] = tested on: A549 subcutaneous lung cancer; test: Anti-tumor effect in mice bearing A549 subcutaneous lung cancer; type: in vivo; conditions: i.v. on Day 0, 4, 8 and 12, DOX 10 mg/kg; Day 18
# Protocol: The volumes of the tumor were measured by a vernier caliper. The tumor volume was calculated as: V=(L×W×H)/2 (wherein L was the tumor length, W was the tumor width, and H was the tumor thickness). The survival of the mice were observed up to 45 days.
# The establishment of a subcutaneous A549 tumor-bearing mice model, administration via tail vein, and data collection were the same as those in Example 37.
# in vivo = conditions: Balb/C nude, mouse, iv, 10 mg/kg
SMILES,IC50 [1],body weight decrease ([2]; Day 10),"tumor growth ([2]; i.v., CPT.HCl, Day 18)",survival of the mice (all survived / all dead) ([2]; subcutaneous H460),body weight decrease ([3]; Day 3),bioluminescence intensity of the lung tumor / tumor growth [3],survival of the mice (all survived / all dead) [3],IC50 (A549 lung cancer cells),tumor growth [4],half-life (in vivo)
"CCc1c2c(nc3ccc(OC(=O)N4CCC(N5CCCCC5)CC4)cc13)-c1cc3c(c(=O)n1C2)COC(=O)[C@]3(O)CC [CPT.HCl, irinotecan hydrochloride]",3.09 µg/mL,18%,could also inhibit the growth of tumor,≤ 28 days,21%,could also inhibit the growth of tumor,≤ 34 days,–,–,–
"COc1cccc2c1C(=O)c1c(O)c3c(c(O)c1C2=O)C[C@@](O)(C(=O)CO)C[C@@H]3O[C@H]1C[C@H](N)[C@H](O)[C@H](C)O1 [DOX.HCl, doxorubicin hydrochloride]",–,–,–,–,–,could also inhibit the growth of tumor,≤ 30 days,4.89 µg/mL,could also inhibit the growth of tumor,16.2 min
"CC(=O)O[C@H]1C(=O)[C@@]2(C)[C@H]([C@H](OC(=O)c3ccccc3)[C@]3(O)C[C@H](OC(=O)[C@H](O)[C@@H](NC(=O)c4ccccc4)c4ccccc4)C(C)=C1C3(C)C)[C@]1(OC(C)=O)CO[C@@H]1C[C@@H]2O [PTX, paclitaxel]",–,–,–,–,–,could also inhibit the growth of tumor,≤ 29 days,–,–,–

# — patent publication US10759905B2, “Biodegradable amphiphilic polymer, polymeric vesicles prepared therefrom, and application of biodegradable amphiphilic polymer in preparation of medicines for targeted therapy of lung cancer” (priority 2015, dated 2020)
